Source: article PMC5712521, “Dendrogenin A drives LXR to trigger lethal autophagy in cancers” (Nature Communications, 2017)

Tests used:
[1] = tested on: AML cells; test: Immunoblot of caspase-3 and PARP in AML cells; type: cell-based, human; conditions: 24 h
Experimental: Immunoblotting was carried out as described previously. Proteins were separated on SDS-PAGE gels, electro-transferred onto polyvinylidene difluoride membranes and incubated overnight at 4 °C with the following antibodies: anti-Atg3, anti-Atg5 (D1G9), anti-Atg7 (D12B11), anti-Beclin (D40C5), anti-caspase-3 (Cell Signaling), anti-Bcl-2 (Millipore), anti-Bax (Millipore), anti-LC3 (Sigma-Aldrich), anti-LXRα (SantaCruz), anti-LXRβ (SantaCruz), anti-Nur77 (Active motif), anti-NOR1 (R&D systems), anti-PARP (Cell Signaling), anti-Vps34 (Cell Signaling), or anti-Actin (Millipore). For visualization, an ECL plus kit (Amersham Biosciences) was used, and chemiluminescence was measured by autoradiography (Supplementary Fig. 9). Specific bands were quantified with ImageQuant software.
Supplementary Fig. 6. […]
AML cells treated with DDA for 24 h in the absence or presence of 50 µM z- VAD-fmk (a
caspase inhibitor). j Effect of z-VAD-fmk on DDA-induced c ytotox icit y in KG1 and HL60 cells. […]
Images are
representative of 3 independent experim ents.

[2] = tested on: normal hematopoietic progenitor cells; test: Normal human CD34+ cells engrafted into NSG mice; type: in vivo; conditions: human BM CD34+ engrafted into NSG mice; 20 mg/kg/day i.p., 3 weeks
From the text: AML patient and normal bone marrow samples were obtained from patients in the Hematology Department of Toulouse (France), after obtaining consent in accordance with the Declaration of Helsinki[67], and according to institutional guidelines. Samples were stored at the INSERM-1037 HIMIP collection (no. DC-2008-307-CPTP1 HIMIP). For some experiments, fresh leukemic blasts recovered at diagnosis were immediately treated with DDA. In other cases, frozen cells were thawed in IMDM medium with 20% FBS. Patient characteristics are shown in supplementary data 1. Normal bone marrow cells were subjected to Ficoll-Paque density gradient separation to isolate mononuclear cells, followed by CD34+ cell separation using high-gradient magnetic-activated cell sorting, according to the manufacturer’s manual. The in vivo assays were performed with cryopreserved cells.
The engraftment of human primary AML cells was performed on NSG mice. […] Two and a half weeks after the injection of human cells, mice were treated with DDA (20 mg/kg/day by IP injection) or vehicle as control for 2, 3 weeks, after which the engraftment of human AML and normal hematopoietic cells was measured in the bone marrow, spleen and brain by quantifying the percentage of hCD45+CD33+ cells by flow cytometry. The viability of AML cells was established by quantifying the percentage of hCD45+CD33+Annexin-V- cells.

[3] = tested on: A375 cells; test: DDA-induced cytotoxicity; type: cell-based; conditions: Homo sapiens, A-375; A375 (H), BRaf V600E; 72 h; read-out: Cytotox EC50
Experimental: (§1) Melanoma cells were seeded into 6-well plates at 60,000 cells per well and AML cells at 250,000 cells/ml. The cells were then treated with control solvent vehicle (1/1000 ethanol in water) or DDA. Where indicated, treated cells were incubated in the presence or absence of each inhibitor for time shown. Cell death was determined by the trypan blue exclusion assay. Cells were scraped and resuspended in trypan blue solution (0.25% (w/v) in PBS) and counted in a Malassez cell under light microscopy. Cell viability was then quantified by counting viable (trypan blue-negative) and dead cells (trypan blue-positive). […]
(§2) (cytotox) and clonogenicity (clono) inhibition in a subset of human (H) and mouse (M)
(§3) m elanom a cell lines. T he BRaf status in m elanom a cells lines is shown. […]

[4] = tested on: WM115 cells; test: DDA-induced cytotoxicity; type: cell-based; conditions: Homo sapiens, WM-115; WM115 (H), BRaf V600E; 72 h; read-out: Cytotox EC50
Experimental: as §1, §2, §3

[5] = tested on: SKMEL-2 cells; test: DDA-induced cytotoxicity; type: cell-based; conditions: Homo sapiens, SK-MEL-2; SKMEL-2 (H), BRaf WT; 72 h; read-out: Cytotox EC50
Experimental: as §1, §2, §3

[6] = tested on: WM-266-4 cells; test: DDA-induced cytotoxicity; type: cell-based; conditions: Homo sapiens; WM-266-4 (H), BRaf WT; 72 h; read-out: Cytotox EC50
Experimental: as §1, §2, §3

[7] = tested on: WM35 cells; test: DDA-induced cytotoxicity; type: cell-based; conditions: Homo sapiens; WM35 (H), BRaf V600E; 72 h; read-out: Cytotox EC50
Experimental: as §1, §2, §3

CC(C)CCC[C@@H](C)[C@H]1CC[C@H]2[C@@H]3C[C@@H](NCCc4cnc[nH]4)[C@@]4(O)C[C@@H](O)CC[C@]4(C)[C@H]3CC[C@]12C [DDA, Dendrogenin A]
cleaved PARP, densitometry ([1]; 5 µM DDA + 50 µM z-VAD-fmk): 1.9 | cleaved casp 3, densitometry ([1]; 5 µM DDA + 50 µM z-VAD-fmk): 0.5 | cleaved PARP, densitometry ([1]; 5 µM DDA, without z-VAD-fmk): 6.1 | cleaved casp 3, densitometry ([1]; 5 µM DDA, without z-VAD-fmk): 4.3 | cleaved PARP, densitometry ([1]; 10 µM DDA + 50 µM z-VAD-fmk): 6.1 | cleaved casp 3, densitometry ([1]; 10 µM DDA + 50 µM z-VAD-fmk): 0.8 | cleaved PARP, densitometry ([1]; 10 µM DDA, without z-VAD-fmk): 10.8 | cleaved casp 3, densitometry ([1]; 10 µM DDA, without z-VAD-fmk): 5.2 | effect on normal hematopoietic progenitor cells [2]: no effect | EC50 [3]: 1800 ± 200 nM | EC50 [4]: 2200 ± 200 nM | EC50 [5]: 2300 ± 100 nM | EC50 [6]: 2700 ± 400 nM | EC50 [7]: 1600 ± 100 nM
